Test results reported in US20260001871A1, “TRIAZOLE DERIVATIVES AS MODULATORS OF MAS-RELATED G-PROTEIN RECEPTOR D” (ESCIENT PHARMACEUTICALS, INC., priority 2022, published 2026).

Molecular target: human MRGPRD (Homo sapiens, UniProt Q8TDS7)
Experiment: MRGPRD antagonist activity, IP-One HTRF assay in CHO cells stably expressing human MRGPRD (versus 100 μM β-Alanine agonist)
Type: cell-based
Method in brief: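 IP-1 HTRF read-out, with IC50 from HTRF ratio curves and percent antagonism relative to maximal efficacy (mean, SEM). Antagonists and agonist were co-incubated 1 h at 37 °C plus 1 h at room temperature on overnight-plated MRGPRD-CHO cells in LiCl-containing Tris buffer, pH 8.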

Chain of human MRGPRD (Q8TDS7 whole entry): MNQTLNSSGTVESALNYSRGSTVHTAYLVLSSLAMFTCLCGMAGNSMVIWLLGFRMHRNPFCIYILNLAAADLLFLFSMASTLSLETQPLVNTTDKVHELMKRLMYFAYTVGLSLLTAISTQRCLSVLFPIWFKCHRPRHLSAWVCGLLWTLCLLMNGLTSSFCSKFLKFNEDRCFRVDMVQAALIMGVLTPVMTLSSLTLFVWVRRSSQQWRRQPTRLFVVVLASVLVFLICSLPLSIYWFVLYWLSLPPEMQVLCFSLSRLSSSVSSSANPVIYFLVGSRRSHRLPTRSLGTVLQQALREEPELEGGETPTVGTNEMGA

IC50 [nM]	SMILES
1000 to 3000	Cc1nn(C)c(C)c1-c1ccc(-n2nnc(C(=O)Nc3ccncc3)c2C2CC2)c(C(F)(F)F)c1 [Compound 7-300]
100 to 500	Cc1cc(NC(=O)c2nnn(-c3ccc(-c4ccc(C#N)nc4)cc3)c2C2CC2)ccn1 [Compound 7-38]
> 3000	O=C(Nc1ccncc1)c1nnn(-c2ncc(-c3ccccc3)s2)c1C1CC1 [Compound 5-2]
500 to 1000	CC(=O)c1cccc(-c2cc(-n3nnc(C(=O)Nc4ccncc4)c3C3CC3)ccc2F)c1 [Compound 7-245]
100 to 500	COCc1ccc(-c2ccc(-n3nnc(C(=O)Nc4ccncc4)c3C3CC3)cc2)cc1 [Compound 7-46]
100 to 500	CN(C)c1ccc(-c2ccc(-n3nnc(C(=O)Nc4ccncc4)c3C3CC3)cc2)cc1 [Compound 7-98]
500 to 1000	COc1ccc(C2(NC(=O)c3nnn(-c4ccc(-c5ccc(C#N)cc5)cc4)c3C(C)C)CC2)cn1 [Compound 18-24]
1000 to 3000	Cc1nn(C)c(C)c1-c1ccc(-n2nnc(C(=O)NCc3nc4ccccc4n3C)c2C2CC2)cc1 [Compound 7-209]
1000 to 3000	Cc1ccc(-n2nnc(C(=O)Nc3ccncc3F)c2C2CC2)cc1 [Compound 1-9]
100 to 500	CC(=O)c1ccc(-c2ccc(-n3nnc(C(=O)Nc4ccncc4)c3C3CC3)cc2)c(F)c1 [Compound 7-75]
1000 to 3000	CC(NC(=O)c1nnn(-c2ccc(-c3ccc(C#N)c(F)c3)cc2)c1C1CC1)c1ccn(C)n1 (stereo not shown) [Compound 15-7]
100 to 500	O=C(Nc1ccncc1)c1nnn(-c2ccc(-c3cnn(C4CCC4)c3)cc2)c1C1CC1 [Compound 7-62]
500 to 1000	O=C(Nc1ccncc1)c1nnn(CC(F)(F)F)c1C1CC1 [Compound 6-3]
500 to 1000	Cc1cc(-c2ccc(-n3nnc(C(=O)Nc4ccncc4)c3C3CC3)cc2)c(C)s1 [Compound 7-121]
> 3000	Cn1cc(C(C)(C)NC(=O)c2nnn(-c3ccc(-c4ccccc4)cc3)c2C2CC2)cn1 [Compound 14-85]
500 to 1000	COc1ccc(C2(NC(=O)c3nnn(-c4ccc(-c5c(C)nn(C)c5C)cc4)c3C(C)C)CC2)cn1 [Compound 18-25]
1000 to 3000	O=C(Nc1ccncc1)c1nnn(-c2ccccc2C(F)(F)F)c1C1CC1 [Compound 4-3]
1000 to 3000	O=C(Nc1ccncc1)c1nnn(-c2cccc(-c3ccccc3F)c2)c1C1CC1 [Compound 7-298]
500 to 1000	Cc1nn(-c2ccccc2)c(C)c1-c1ccc(-n2nnc(C(=O)Nc3ccc(NS(C)(=O)=O)cc3)c2C2CC2)cc1 [Compound 9-27]
100 to 500	CN(C)S(=O)(=O)n1ccc(-c2ccc(-n3nnc(C(=O)Nc4ccncc4)c3C3CC3)cc2)n1 [Compound 7-43]
100 to 500	COc1ccc(-c2ccc(-n3nnc(C(=O)Nc4ccnc(C)c4)c3C3CC3)cc2)cn1 [Compound 15-14]
100 to 500	Cc1c(-c2ccc(-n3nnc(C(=O)Nc4ccncc4)c3C3CC3)cc2)cnn1-c1ccccc1 [Compound 7-26]
100 to 500	Cc1ccc(C2(NC(=O)c3nnn(-c4ccc(-c5ccc(C#N)c(F)c5)cc4)c3C3CC3)CC2)cn1 [Compound 9-7]
100 to 500	CCc1ccc(C2(NC(=O)c3nnn(-c4ccc(-c5ccc(C#N)c(F)c5)cc4)c3C3CC3)CC2)cn1 [Compound 9-13]
1000 to 3000	O=C(Nc1ccncc1)c1nnn(-c2cccc(-c3ccccc3Cl)c2)c1C1CC1 [Compound 7-302]
100 to 500	O=C(Nc1ccncc1)c1nnn(-c2ccc(-c3ccc[nH]3)cc2)c1C1CC1 [Compound 7-77]
500 to 1000	Cc1cc(NC(=O)c2nnn(-c3ccc(-c4ccc(C#N)cc4)cc3)c2C(C)C)ccn1 [Compound 17-28]
100 to 500	Cc1nn(-c2ccccc2)c(C)c1-c1ccc(-n2nnc(C(=O)NCc3ccc(C(C)C)nc3)c2C2CC2)cc1 [Compound 9-15]

The next lines start with the compound.

SMILES	IC50 [nM]
Cc1cc(NC(=O)c2nnn(-c3ccc(-c4c(C)nn(C)c4C)cc3)c2C2CC2)ccn1 [Compound 7-12, 5-cyclopropyl-N-(2-methylpyridin-4-yl)-1-(4-(1,3,5-trimethyl-1H-pyrazol-4-yl)phenyl)-1H-1,2,3-triazole-4-carboxamide]	< 100
O=C(Nc1ccncc1)c1nnn(-c2ccc(-c3cnsc3)cc2)c1C1CC1 [Compound 7-79]	100 to 500
COCCn1nnc(C(=O)Nc2ccncc2)c1C1CC1 [Compound 6-4]	1000 to 3000
COCC1(NC(=O)c2nnn(-c3ccc(-c4ccccc4)cc3)c2C2CC2)CCCC1 [Compound 14-83]	> 3000
O=C(Nc1ccncc1)c1nnn(-c2cccc(-c3cnn(C4CCC4)c3)c2)c1C1CC1 [Compound 7-243]	500 to 1000
COc1cc(-n2nnc(C(=O)Nc3ccncc3)c2C2CC2)ccc1-c1c(C)nn(C)c1C [Compound 7-275]	500 to 1000
CC(=O)c1ccc(-c2cccc(-n3nnc(C(=O)Nc4ccncc4)c3C3CC3)c2)s1 [Compound 7-265]	500 to 1000
CN(C)C(=O)c1ccc(-c2ccc(-n3nnc(C(=O)Nc4ccncc4)c3C3CC3)cc2)cc1 [Compound 7-207]	1000 to 3000
CC(C)n1nccc1-c1ccc(-n2nnc(C(=O)Nc3ccncc3)c2C2CC2)cc1 [Compound 7-106]	100 to 500
CC(NC(=O)c1nnn(-c2ccc(-c3ccccc3)cc2)c1C1CC1)c1nccs1 (stereo not shown) [Compound 14-3]	> 3000
COc1cc(NC(=O)c2nnn(-c3ccc(-c4ccccc4)cc3)c2C2CC2)c2cn[nH]c2c1 [Compound 14-84]	> 3000
CS(=O)(=O)c1cccc(-c2ccc(-n3nnc(C(=O)Nc4ccncc4)c3C3CC3)cc2)c1 [Compound 7-71]	100 to 500
Cn1ncc2c1CCC2NC(=O)c1nnn(-c2ccc(-c3ccccc3)cc2)c1C1CC1 (stereo not shown) [Compound 14-70]	1000 to 3000
O=C(Nc1ccncc1)c1nnn(-c2ccc3ccccc3c2)c1C1CC1 [Compound 5-3]	500 to 1000
COc1ccc(-c2cccc(-n3nnc(C(=O)Nc4ccncc4)c3C3CC3)c2)c(C)c1 [Compound 7-287]	1000 to 3000
O=C(Nc1ccncc1)c1nnn(-c2ccc(-c3cccc(Cl)c3)cc2)c1C1CC1 [Compound 7-101]	100 to 500
O=C(Nc1ccncc1)c1nnn(-c2ccc(-c3ccccc3-c3ccccc3)cc2)c1C1CC1 [Compound 7-327]	1000 to 3000
CCc1cccc(-n2nnc(C(=O)Nc3ccncc3)c2C2CC2)c1 [Compound 3-1, 5-cyclopropyl-1-(3-ethylphenyl)-N-(pyridin-4-yl)-1H-1,2,3-triazole-4-carboxamide]	500 to 1000
Cc1cc(NC(=O)c2nnn(-c3cccc(-c4ccn(C5CCCC5)n4)c3)c2C2CC2)ccn1 [Compound 7-236]	100 to 500
Cc1cc(NC(=O)c2nnn(-c3ccc(-c4ccc(C#N)cc4)cc3F)c2C(C)C)ccn1 [Compound 17-14]	100 to 500
CCn1cc(CNC(=O)c2nnn(C3CC=C(c4ccc(C#N)cc4)CC3)c2C2CC2)cn1 (stereo not shown) [Compound 12-8]	1000 to 3000
CC(=O)c1cccc(-c2cccc(-n3nnc(C(=O)NC4(c5cccnc5)CC4)c3C3CC3)c2)c1 [Compound 18-20]	100 to 500
CS(=O)(=O)Nc1cccc(NC(=O)c2nnn(-c3ccc(-c4ccccc4)cc3)c2C2CC2)c1 [Compound 14-77]	> 3000

SMILES	IC50 [nM]
O=C(NC1CC(F)(F)C1)c1nnn(-c2ccc(-c3ccccc3)cc2)c1C1CC1 [Compound 14-56]	1000 to 3000
O=C(Nc1ccncc1)c1nnn(-c2cccc(-c3cnn(CC4CC4)c3)c2)c1C1CC1 [Compound 7-241]	500 to 1000
CCn1nc(C)c(-c2ccc(-n3nnc(C(=O)Nc4ccncc4)c3C3CC3)cc2)c1C [Compound 7-14]	< 100
Cc1ccc(CNC(=O)c2nnn(-c3cccc(-c4ccc(C#N)cc4)c3)c2C2CC2)cn1 [Compound 7-7]	> 3000
N#CCc1cccc(-c2ccc(-n3nnc(C(=O)Nc4ccncc4)c3C3CC3)cc2)c1 [Compound 7-30]	100 to 500
O=C(Nc1ccncc1)c1nnn(-c2ccc(-c3ccc(C(F)F)cc3)cc2)c1C1CC1 [Compound 7-28]	100 to 500
Cc1nn(C)cc1-c1ccc(-n2nnc(C(=O)Nc3ccncc3)c2C2CC2)cc1 [Compound 7-72]	100 to 500
Cc1cc(-c2ccc(-n3nnc(C(=O)Nc4ccncc4)c3C3CC3)cc2)n(C)n1 [Compound 7-132]	500 to 1000
Cc1nn(C)c(C)c1-c1ccc(-n2nnc(C(=O)Nc3ccncc3)c2C2CC2)c(C#N)c1 [Compound 7-267]	500 to 1000
Cc1ncccc1CNC(=O)c1nnn(-c2ccc(-c3c(C)nn(C)c3C)cc2)c1C1CC1 [Compound 15-11]	100 to 500
COc1cc(-c2ccc(-n3nnc(C(=O)Nc4ccncc4)c3C3CC3)cc2)n[nH]1 [Compound 7-138]	500 to 1000
Cc1cc(NC(=O)c2nnn(-c3ccc(-c4ccc(C#N)cc4)cn3)c2C(C)C)ccn1 [Compound 17-15]	100 to 500
CC(C)C(=O)c1ccc(-c2ccc(-n3nnc(C(=O)Nc4ccncc4)c3C3CC3)cc2)cc1 [Compound 7-74]	100 to 500
CCn1ccc(-c2cccc(-n3nnc(C(=O)Nc4ccnc(C)c4)c3C3CC3)c2)n1 [Compound 7-262]	500 to 1000
Cc1nn(C)c(C)c1-c1ccc(-n2nnc(C(=O)NC3(c4cccnc4)CC3)c2C2CC2)cc1 [Compound 18-17]	1000 to 3000
CCc1ccc(-c2ccc(-n3nnc(C(=O)Nc4ccncc4)c3C3CC3)cc2)cc1 [Compound 7-199]	1000 to 3000
Cc1ccc(C2(NC(=O)c3nnn(-c4ccc(-c5c(C)nn(C)c5C)cc4)c3C3CC3)CC2)cn1 [Compound 15-17]	1000 to 3000
O=C(Nc1ccncc1)c1nnn(C2CCCCC2)c1C1CC1 [Compound 6-1]	1000 to 3000
Cc1nn(C)cc1-c1cccc(-n2nnc(C(=O)Nc3ccncc3)c2C2CC2)c1 [Compound 7-316]	1000 to 3000
O=C(NCCc1cccs1)c1nnn(-c2ccc(-c3ccccc3)cc2)c1C1CC1 [Compound 14-67]	1000 to 3000
CC(C)n1cc(CNC(=O)c2nnn(-c3ccc(-c4ccccc4)cc3)c2C2CC2)cn1 [Compound 14-32]	1000 to 3000
CC(NC(=O)c1nnn(-c2ccc(-c3ccc(C#N)cc3)cc2)c1C1CC1)c1cnn(C)c1 (stereo not shown) [Compound 15-8]	1000 to 3000
